TGI data for seven molecules are collected here from PubChem BioAssay (NCI).

Some test systems named below: OVCAR-3 ovarian; EKVX NSCLC; MDA-MB-231 breast; MDA-MB-435; UO-31 renal; MDA-N; SF-539 CNS; OVCAR-5 ovarian; CCRF-CEM leukemia; OVCAR-4 ovarian; HOP-62 NSCLC; RXF 393 renal; HCT-116 colon; SNB-19 CNS; SR leukemia; MCF7 breast; RPMI-8226 leukemia; SK-OV-3 ovarian; NCI-H460 lung; ACHN renal.
Test in all cases: inhibition of tumour cell growth, NCI panel, 48 h

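48-hour exposure; five concentrations; linearly interpolated endpoints. TGI is the concentration that stops growth completely.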 *1 amine or outer side, *2 acyl side, *3 side chain or, on linkers, in order; H or OH if unused. Where a SMILES comes first, the peptide text is derived from it. [ ]: non-standard residue; d: D form. The star is where a group is joined. ξ: configuration not given here. X27 = O=C([C@H]1CCC[C@H]1N[*:1])[*:2]; ξW = NC(Cc1c[nH]c2ccccc12)C(=O)O; ξF = NC(Cc1ccccc1)C(=O)O; Boc = CC(C)(C)OC(=O)*; ξK = NCCCCC(N)C(=O)O; ξT = CC(O)C(N)C(=O)O; tBu = CC(C)(C)*

Consider `CC(C)(C)c1cc(-c2cc(C(C)(C)C)[nH]n2)n[nH]1`, for which the TGI in the assay on OVCAR-3 ovarian, with EKVX NSCLC, with MDA-MB-231 breast, with MDA-MB-435, in the assay with UO-31 renal and in the assay with MDA-N was > 100 µM in each case. Besides, the TGI in the assay with SF-539 CNS, with OVCAR-5 ovarian, in the assay on CCRF-CEM leukemia, in the assay with OVCAR-4 ovarian, in the assay with HOP-62 NSCLC and with RXF 393 renal was > 100 µM throughout. Moreover, the TGI in the assay on HCT-116 colon, with SNB-19 CNS, in the assay with SR leukemia, in the assay on MCF7 breast, in the assay on RPMI-8226 leukemia and in the assay with SK-OV-3 ovarian was > 100 µM each time. The TGI in the assay on NCI-H460 lung and in the assay on ACHN renal was > 100 µM throughout.

With `CC(OC(C)(C)C)C1NC(=O)C(CCCCNC(=O)OC(C)(C)C)NC(=O)C(Cc2c[nH]c3ccccc23)NC(=O)C(Cc2ccccc2)NC(=O)[C@H]2CCC[C@H]2NC(=O)C(Cc2ccccc2)NC1=O` (stereo not given in full) (cyclo([X27][ξF][ξW][ξK](Boc)[ξT](tBu)[ξF])), the TGI in the assay with OVCAR-3 ovarian, with EKVX NSCLC, in the assay with MDA-MB-231 breast, in the assay with MDA-MB-435, with UO-31 renal and in the assay on MDA-N was > 100 µM throughout. Besides, the TGI with SF-539 CNS is > 100 µM; in the assay on OVCAR-5 ovarian it was 59.8 µM; in the assay with CCRF-CEM leukemia, > 100 µM; in the assay with OVCAR-4 ovarian, > 100 µM; with HOP-62 NSCLC it was > 100 µM; in the assay on RXF 393 renal, > 100 µM. Further, the TGI was > 100 µM in the assay with HCT-116 colon; 69.6 µM in the assay with SNB-19 CNS; > 100 µM with SR leukemia; > 100 µM with MCF7 breast; > 100 µM in the assay with RPMI-8226 leukemia; > 100 µM with SK-OV-3 ovarian. The TGI with NCI-H460 lung and with ACHN renal was > 100 µM each time.

With `O=[N+]([O-])c1ccc(-c2cc(O)c3nc4ccccc4n3c2)cc1`, the TGI with OVCAR-3 ovarian was > 100 µM; in the assay with EKVX NSCLC it was > 100 µM; in the assay with MDA-MB-231 breast, > 100 µM; with MDA-MB-435 it was > 31.6 µM; in the assay with UO-31 renal, > 100 µM; in the assay on MDA-N, > 100 µM. Moreover, the TGI with SF-539 CNS was > 100 µM; in the assay with OVCAR-5 ovarian, > 100 µM; with CCRF-CEM leukemia it was > 100 µM; with OVCAR-4 ovarian, > 100 µM; in the assay on HOP-62 NSCLC, > 94 µM; with RXF 393 renal it was > 100 µM. Also, the TGI in the assay on HCT-116 colon, with SNB-19 CNS, with SR leukemia, with MCF7 breast, in the assay with RPMI-8226 leukemia and in the assay on SK-OV-3 ovarian was > 100 µM in each case. Further, the TGI in the assay on NCI-H460 lung and in the assay on ACHN renal was > 100 µM throughout.

Consider `CCCCNc1nc2ccccc2c2c1ncn2CC(C)C`, for which the TGI with OVCAR-3 ovarian, with EKVX NSCLC, with MDA-MB-231 breast, in the assay on MDA-MB-435, in the assay with UO-31 renal and with MDA-N was > 100 µM each time. For the same molecule, the TGI in the assay with SF-539 CNS, in the assay with OVCAR-5 ovarian, with CCRF-CEM leukemia, in the assay on OVCAR-4 ovarian, in the assay with HOP-62 NSCLC and with RXF 393 renal was > 100 µM throughout. Besides, the TGI with HCT-116 colon, with SNB-19 CNS, in the assay with SR leukemia, with MCF7 breast, in the assay on RPMI-8226 leukemia and with SK-OV-3 ovarian was > 100 µM throughout. In addition, the TGI in the assay on NCI-H460 lung and with ACHN renal was > 100 µM throughout.

In the case of `O=C(NC(=S)Nc1ccc2c(c1)Sc1ccccc1O2)c1ccc([N+](=O)[O-])cc1`, the TGI in the assay with OVCAR-3 ovarian, in the assay on EKVX NSCLC, in the assay with MDA-MB-231 breast, in the assay with MDA-MB-435, with UO-31 renal and in the assay with MDA-N was > 100 µM in each case. Further, the TGI in the assay with SF-539 CNS, in the assay with OVCAR-5 ovarian, in the assay with CCRF-CEM leukemia, in the assay with OVCAR-4 ovarian, with HOP-62 NSCLC and in the assay with RXF 393 renal was > 100 µM in each case. Also, the TGI in the assay on HCT-116 colon, with SNB-19 CNS, in the assay with SR leukemia, in the assay on MCF7 breast, in the assay on RPMI-8226 leukemia and in the assay with SK-OV-3 ovarian was > 100 µM throughout. The TGI with NCI-H460 lung and in the assay with ACHN renal was > 100 µM each time.

Turning to `O=C1c2cccnc2S(=O)(=O)N1c1ccc(Oc2ccccc2)cc1`, the TGI in the assay with OVCAR-3 ovarian, in the assay with EKVX NSCLC, in the assay with MDA-MB-231 breast, in the assay with MDA-MB-435, in the assay on UO-31 renal and with MDA-N was > 100 µM each time. The TGI with SF-539 CNS, in the assay with OVCAR-5 ovarian, with CCRF-CEM leukemia, in the assay with OVCAR-4 ovarian, with HOP-62 NSCLC and in the assay on RXF 393 renal was > 100 µM throughout. Further, the TGI in the assay on HCT-116 colon, in the assay with SNB-19 CNS, with SR leukemia, in the assay on MCF7 breast, in the assay with RPMI-8226 leukemia and in the assay with SK-OV-3 ovarian was > 100 µM throughout. Moreover, the TGI with NCI-H460 lung and in the assay with ACHN renal was > 100 µM each time.

For the molecule `O=c1[nH]nc(Cc2ccc(Cl)cc2)n1/N=C/c1ccco1`, the TGI in the assay on OVCAR-3 ovarian, in the assay on EKVX NSCLC, with MDA-MB-231 breast, with MDA-MB-435, in the assay on UO-31 renal and with MDA-N was > 100 µM each time. The TGI with SF-539 CNS was 90.5 µM; in the assay on OVCAR-5 ovarian, > 100 µM; in the assay on CCRF-CEM leukemia, > 100 µM; with OVCAR-4 ovarian, > 100 µM; in the assay on HOP-62 NSCLC, > 100 µM; in the assay on RXF 393 renal it was 91.7 µM. For the same molecule, the TGI in the assay with HCT-116 colon is > 100 µM; in the assay with SNB-19 CNS, 78.4 µM; in the assay with SR leukemia it was > 100 µM; in the assay on MCF7 breast, > 100 µM; with RPMI-8226 leukemia, > 100 µM; in the assay on SK-OV-3 ovarian it was > 100 µM. For the same molecule, the TGI with NCI-H460 lung and with ACHN renal was > 100 µM in each case.
